Assay results from US20260200977A1, “PEPTIDE HAVING ACTIVITY OF IMPROVING STATE OF SKIN, AND USE THEREOF” (CAREGEN CO., LTD., priority 2022, published 2026).

Key:
collagen type 1 (CoI1a1) = assay: Expression of extracellular matrix component by RT-PCR in NIH3T3 cells; type: cell-based, mouse; conditions: 10 μM, 50 μM or 1000 μM peptide, 24 hours, FIG. 2, FIG. 3A
Protocol: (§1) In this example, the aim was to confirm the effect of the peptide according to an example on improving endogenous skin aging, including improvement of wrinkles and enhancement of elasticity, etc., by evaluating the expression levels of collagen type 1 (CoI1a1), fibronectin, elastin, and hyaluronic acid, which are known components of the dermis.
(§2) Specifically, NIH3T3 cells were seeded in a 6-well plate at a density of 3×10^5 cells/well and cultured for 24 hours. Next, the cells were washed once with serum-free DMEM media, and 10 μM, 50 μM or 1000 μM of a peptide consisting of an amino acid sequence of SEQ ID NO: 1 was dispensed into 1 mL of the serum-free media, and cultured in a CO2 incubator at 37° C. for 24 hours. Next, the culture was washed twice with PBS, and RNA was isolated from the culture using easy blue (iNtRON, Cat. No.: 17061, Korea). Next, using an RT kit (Enzynomics, Cat. NO.: RT200, Korea), the isolated RNA was reverse transcribed to synthesize the respective cDNA. Next, using the synthesized 1 μg cDNA, primers for CoI1a1, fibronectin, or elastin, and a PCR kit (Enzynomics, Cat. No.: P581T, Korea), polymerase chain reaction (PCR) was performed. Meanwhile, in this example, an untreated group was used as a control group, and a group to which IGF was added was used as a positive control group, the nucleotide sequences of the primers used in this example are shown in Table 2 below.

fibronectin = assay: as above; type: cell-based, mouse; conditions: 10 μM, 50 μM or 1000 μM peptide, 24 hours, FIG. 2, FIG. 3B
Protocol: as §1, §2

elastin = assay: as above; type: cell-based, mouse; conditions: 10 μM, 50 μM or 1000 μM peptide, 24 hours, FIG. 2, FIG. 3C
Protocol: as §1, §2

aquaporin-3 (AQP3) = assay: Expression of skin barrier factor by RT-PCR in HaCaT cells; type: cell-based; conditions: 10 μM, 50 μM or 1000 μM peptide, 24 hours, FIG. 4, FIG. 5B
Protocol: (§3) In this example, the aim was to confirm the effect of the peptides according to an example on strengthening the skin barrier, by evaluating the expression levels of sirtuin-1 (SIRT-1) or aquaporin-3 (AQP3).
(§4) Specifically, HaCaT cells were seeded in a 6-well plate at a density of 3×10^5 cells/well and cultured for 24 hours. Next, the cells were washed once with serum-free DMEM media, and 10 μM, 50 μM or 1000 μM of the peptide consisting of the amino acid sequence of SEQ ID NO: 1 was dispensed into 1 mL of the serum-free media, and cultured in a CO2 incubator at 37° C. for 24 hours. Next, the culture was washed twice with PBS, and RNA was isolated from the culture using easy blue (iNtRON, Cat. No.: 17061, Korea). Next, using an RT kit (Enzynomics, Cat. NO.: RT200, Korea), the isolated RNA was reverse transcribed to synthesize the respective cDNA. Next, using the synthesized 1 μg cDNA, primers for SIRT-1 or AQP3, and a PCR kit (Enzynomics, Cat. No.: P581T, Korea), polymerase chain reaction (PCR) was performed. Meanwhile, in this example, an untreated group was used as a control group, and a group to which EGF was added was used as a positive control group, the nucleotide sequences of the primers used in this example are shown in Table 3 below.

sirtuin-1 (SIRT-1) = assay: as above; type: cell-based; conditions: 10 μM, 50 μM or 1000 μM peptide, 24 hours, FIG. 4, FIG. 5A
Protocol: as §3, §4

HaCaT cells = assay: Reactive oxygen species increased by ultraviolet irradiation, DCFH-DA flow cytometry; type: cell-based; conditions: 50 μM or 1000 μM peptide, 15 mJ/cm^2 ultraviolet rays, 24 hours, FACS, FIG. 6
Protocol: In this example, the aim was to confirm the effect of the peptide according to an embodiment on the antioxidant effect in damaged skin, by evaluating the change in the level of reactive oxygen species in skin cells increased by ultraviolet irradiation.
Specifically, HaCaT cells were seeded in a 6-well plate at a density of 5×10^5 cells/well and cultured for 24 hours. Next, the cells were washed once with serum-free DMEM media, and 50 μM or 1000 μM of a peptide consisting of an amino acid sequence of SEQ ID NO: 1 was dispensed into 1 mL of the serum-free media, and cultured in a CO2 incubator at 37° C. for […]. Next, the above culture was transferred to an e-tube, mixed with 1 ml of PBS, and dispensed into a well plate. Next, using a UV irradiator (VILBER LOURMAT, Cat No.: 3102-BSU, France), 15 mJ/cm^2 ultraviolet rays were irradiated to HaCaT cells. Next, the PBS in the well plate was removed, 900 μL of the culture medium in which the peptides were dispensed was added, and the plate was cultured in a CO2 incubator at 37° C. for 24 hours. Next, the culture was treated with DCFH-DA (2′,7′-dichlorofluorescin diacetate), wrapped in foil, and cultured in a CO2 incubator at 37° C. for 30 minutes. […] After washing the centrifuged cells with PBS, fluorescence values were measured through flow cytometry (FACS, BD, USA). […]

NIH3T3 cells = assay: Proliferation of skin cells, MTT (change in cell survival rate); type: cell-based, mouse; conditions: 50 μM or 100 μM peptide, serum-free media, 72 hours, MTT absorbance 540 nm, FIG. 1
Protocol: In this example, the aim was to confirm the effect of a peptide according to an example on proliferation of skin cells, by evaluating changes in survival rate of NIH3T3 cells, which are mouse fibroblasts.
Specifically, NIH3T3 cells were seeded in a […] at a density of 1×10^4 cells/well and cultured for 24 hours. Next, the cells were washed once with serum-free DMEM media, and 50 μM or 100 μM of a peptide consisting of an amino acid sequence of SEQ ID NO: 1 was dispensed into 200 μL of the serum-free media, and cultured in a CO2 incubator at 37° C. for 72 hours. Next, the culture was washed twice with PBS, and MTT solution was dispensed into each well at a concentration of 0.5 mg/ml. Next, it was shaded from light and cultured in a CO2 incubator at 37° C. for 4 hours, and the absorbance at 540 nm was measured using a microplate reader (Molecular Devices, USA).

TNRTEVEG [SEQ ID NO: 1]
expression of CoI1a1 (collagen type 1 (CoI1a1)): increased | expression of fibronectin (fibronectin): increased | expression of elastin (elastin): increased | expression of AQP3 (aquaporin-3 (AQP3)): increased | expression of SIRT-1 (sirtuin-1 (SIRT-1)): increased | level of reactive oxygen species in keratinocytes increased by ultraviolet irradiation (HaCaT cells): reduced | proliferation of fibroblasts (NIH3T3 cells): promoted
